Results published in patent EP2349249B1, “SYNERGISTIC COMPOSITION FOR RECOVERY AND REDUCTION OF MILD ISCHEMIC DAMAGE” (Giellepi S.p.A., priority 2008, dated 2010).

Tests used:
H9c2 cells [1] = assay: MTT cell viability assay in doxorubicin-treated cells; type: cell-based; settings: H9c2 cells treated for 24 hours with 0.5 µM doxorubicin; for minimal effective concentration: Rattus norvegicus, MTT dose-response curve, read-out: minimum effective concentration required to improve viability (sufficient to induce protection)
Protocol: Cells were seeded at a concentration of 1.8x10^3/well in 96-well plates and incubated at 37°C for 24 hours. Cells were then incubated for additional 24 hours after addition of water or doxorubicin (0.5 µM final concentration) in presence of different concentrations of Cr and/or Rib, as indicated in the figures. Cell viability was determined by the 2-(4,5-dimethyltriazol-2-yl)-2,5-diphenyl tetrazolium bromide assay (MTT, Sigma, St Louis, Mo). Briefly, after addition to each well of 20µl of the MTT solution in PBS at a concentration of 5 mg/ml, cells were incubated at 37°C for 4 hours. After removal of the supernatant, 100 µl of DMSO were added to dissolve the formazan salts produced and optical density (OD) was read at λ=540 nm. For each treatment, five replicates were performed. The viability index was calculated, for each treatment, as ODx/OD0, where ODx and OD0 are the average ODs at time x and at time zero.
The optimal working concentration was determined by a dose-response curve using the MTT assay (vital dye staining) in presence of Creatine and Ribose. To test the efficacy of creatine and ribose in maintaining cellular energy homeostasis, H9c2 cells were treated with doxorubicin, a well-known cardiotoxic agent that causes mitochondrial damage resulting in production of reactive oxygen species.

H9c2 cells [2] = assay: Cell cycle profile by flow cytometry (propidium iodide) in simulated ischemia; type: cell-based; settings: ischemic H9c2 cells; 2.5 mM Creatine and/or 5 mM Ribose
Protocol: The cell cycle profile was analyzed by flow cytometry after DNA staining with propidium iodide (PI, Sigma, St. Louis, Mo.). Cells were washed with PBS and fixed with 70% ethanol at -20°C, centrifuged (15 min at 1800 rpm), resuspended in 1 ml PBS containing 50 µg/ml PI and incubated for 1 hour at room temperature Cells were then analyzed by flow cytometry in a FACSorter (Becton Dickinson). The percentage of cells in different phases of the cell cycle was calculated using the CellQuest software program (Becton Dickinson).

SMILES | decrease of viability compared to untreated cells (H9c2 cells [1]; MTT) | change of the percentage of cells progressing from G1 to S phase (H9c2 cells [2]) | minimal effective concentration (H9c2 cells [1])
COc1cccc2c1C(=O)c1c(O)c3c(c(O)c1C2=O)C[C@@](O)(C(=O)CO)C[C@@H]3O[C@H]1C[C@H](N)[C@H](O)[C@H](C)O1 [Doxo, doxorubicin, reference compound] | 35% | – | –
CN(CC(=O)O)C(=N)N.O [Creatine, Creatine monohydrate] | – | did not change | 2500 µM
O=C[C@H](O)[C@H](O)[C@H](O)CO [Ribose, D-ribose] | – | did not change | 5000 µM
